In ChEMBL document CHEMBL3856190, “Novel spirothiazamenthane inhibitors of the influenza A M2 proton channel” (Eur J Med Chem, 2016):
Calls of active or inactive are those of the source. The rule behind the calls is not given here.

Key:
MDCK [1] = experiment: Antiviral activity against amantadine-resistant Influenza A virus A/Puerto Rico/8/34 expressing M2 proton channel V27A mutant infected in MDCK cells assessed as inhibition of viral replication at 100 uM measured after 10 hrs by miniplaque assay; assay type: functional, cell-based; conditions: Influenza A virus (A/Puerto Rico/8/1934(H1N1))
MDCK [2] = experiment: Antiviral activity against amantadine-resistant Influenza A virus A/Puerto Rico/8/34 expressing M2 proton channel S31N mutant infected in MDCK cells assessed as inhibition of viral replication at 0.001 to 100 uM measured after 10 hrs by miniplaque assay; assay type: functional, cell-based; conditions: Influenza A virus (A/Puerto Rico/8/1934(H1N1))

Row | SMILES | inhibition (MDCK [1]) | inhibition (MDCK [2])
1 | CCOCCN1CCN(CCNC2=NC(C)(C)[C@]3(CC[C@H](C)CC3)S2)CC1 | Active | Active
2 | CC(C)CCN1CCN(CCNC2=NC(C)(C)[C@]3(CC[C@H](C)CC3)S2)CC1 | Active | Active
3 | CN1CCN(CCNC2=NC(C)(C)[C@]3(CC[C@H](C)CC3)S2)CC1 | – | Active
4 | CCCCN1CCN(CCNC2=NC(C)(C)[C@]3(CC[C@H](C)CC3)S2)CC1 | Active | Active
5 | CCCCCCCCN1CCN(CCNC2=NC(C)(C)[C@]3(CC[C@H](C)CC3)S2)CC1 | – | Active
6 | CN(C)CCN1CCN(CCNC2=NC(C)(C)[C@]3(CC[C@H](C)CC3)S2)CC1 | – | Active
7 | CC1(C)N=C(NCCN2CCN(Cc3ccccc3)CC2)S[C@]12CC[C@@H](C)CC2 | Active | Active
